According to US11306064B2, “Benzothia(di)azepine compounds and their use as bile acid modulators” (Albireo AB, priority 2018, dated 2022):

Assays:
[1] = target: T1, Human LBAT (Homo sapiens, UniProt Q14973); assay: LBAT (h/m) assay: 3H-taurocholic acid uptake in human LBAT-overexpressing cells; type: cell-based; conditions: 0.3 μM 3H-taurocholic acid and 7.5 μM cold taurocholic acid, 20 minutes, read-out: hLBAT IC50
T1 construct: expressed in transfected cells; kept under Geneticin selection
T1 sequence (Q14973 1-349): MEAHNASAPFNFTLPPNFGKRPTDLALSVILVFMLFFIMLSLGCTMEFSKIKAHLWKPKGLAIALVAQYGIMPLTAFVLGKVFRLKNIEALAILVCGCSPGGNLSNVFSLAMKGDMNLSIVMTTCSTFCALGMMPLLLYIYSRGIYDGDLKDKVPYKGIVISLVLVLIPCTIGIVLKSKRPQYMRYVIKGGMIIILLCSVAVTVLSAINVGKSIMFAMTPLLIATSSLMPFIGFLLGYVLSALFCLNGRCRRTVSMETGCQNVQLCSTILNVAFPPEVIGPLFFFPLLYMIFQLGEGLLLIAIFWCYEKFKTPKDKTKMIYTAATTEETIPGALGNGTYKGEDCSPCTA
Procedure, shortened: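 LBAT-overexpressing cells, serum-free MEM-alpha, 20 min at 37° C with inhibitor (3-fold, 10-point) plus 0.3 μM 3H-taurocholic acid and cold taurocholic acid (7.5 μM human; 25 μM mouse), 0.2% DMSO. Stopped on ice, washed with 1 mM unlabelled taurocholate; uptake by scintillation counting.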

[2] = test system: HepaRG cells; assay: HepaRG-based assay: 3H-taurocholic acid uptake in differentiated HepaRG cells; type: cell-based; conditions: 0.3 μM 3H-taurocholic acid and 7.5 μM cold taurocholic acid, 30 minutes
Procedure, shortened: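 Differentiated HepaRG cells cultured 7 days post-seeding were exposed for 30 min at 37 °C to 0.3 μM 3H-taurocholic acid plus 7.5 μM cold taurocholic acid with inhibitor (3-fold dilutions, 0.2% DMSO). Uptake was stopped on ice, washed with 1 mM unlabelled taurocholic acid, and counted by scintillation.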

[3] = Bioavailability studies in mice; type: in vivo; conditions: mouse; C57BL/6 mice; single intravenous dose 1 mg/kg vs single oral dose 10 mg/kg; plasma LC-MS/MS
Protocol: C57BL/6 mice of 8-9 weeks old were used. For each test compound, two groups of 3 animals each were used. One group was administered a single intravenous dose of 1 mg/kg (vehicle 100% DMSO) through the tail vein and the other group was administered a single oral dose of 10 mg/kg through gavage needle. The group that was administered an oral dose was fasted overnight. Blood samples were collected after 0.083, 0.25, 0.5, 1, 2, 4, 6, 8 and 24 hours following intravenous administration, and after 0.25, 0.5, 1, 2, 4, 6, 8 and 24 hours following oral administration. Blood samples were taken from saphenous vein. 0.2% EDTA was used as the anticoagulant. The samples were analyzed by a discovery grade bioanalytical method developed for the estimation of test compound in plasma, using an LC-MS/MS system.

IC50 [1] [µM] | IC50 ([2]; Homo sapiens, HepaRG) [µM] | bioavailability [3] [%] | IC50 [2] [µM] | Compound
0.156 | 0.809 | 100 | – | CCCCC1(CC)CN(c2ccccc2)c2cc(Br)c(O/C=C/C(=O)O)cc2S(=O)(=O)C1 (single isomer, unassigned) [Example 6, (E)-3-((7-bromo-3-butyl-3-ethyl-1,1-dioxido-5-phenyl-2,3,4,5-tetrahydro-1,5-benzothiazepin-8-yl)oxy)acrylic acid]
0.08 | 1.26 | 35 | – | CCCCC1(CC)CN(c2ccccc2)c2cc(SC)c(O/C=C/C(=O)O)cc2S(=O)(=O)C1 (single isomer, unassigned) [Example 18, (E)-3-((3-butyl-3-ethyl-7-(methylthio)-1,1-dioxido-5-phenyl-2,3,4,5-tetrahydro-1,5-benzothiazepin-8-yl)oxy)acrylic acid]
0.008 | – | 44 | 0.405 | CCCCC1(CC)CN(c2ccccc2)c2cc(SC)c(O/C=C(\F)C(=O)O)cc2S(=O)(=O)C1 (single isomer, unassigned) [Example 43, (Z)-3-((3-butyl-3-ethyl-7-(methylthio)-1,1-dioxido-5-phenyl-2,3,4,5-tetrahydro-1,5-benzothiazepin-8-yl)oxy)-2-fluoroacrylic acid]
0.0081 | – | 18 | 0.26 | CCCCC1(CC)CN(c2ccccc2)c2cc(Cl)c(O/C=C(\F)C(=O)O)cc2S(=O)(=O)C1 (single isomer, unassigned) [Example 48, (Z)-3-((3-butyl-7-chloro-3-ethyl-1,1-dioxido-5-phenyl-2,3,4,5-tetrahydro-1,5-benzothiazepin-8-yl)oxy)-2-fluoroacrylic acid]
0.045 | 1.09 | 27 | – | CCCCC1(CCCC)CN(c2ccccc2)c2cc(SC)c(O/C=C(\F)C(=O)O)cc2S(=O)(=O)C1 [Example 11, (Z)-3-((3,3-dibutyl-7-(methylthio)-1,1-dioxido-5-phenyl-2,3,4,5-tetrahydro-1,5-benzothiazepin-8-yl)oxy)-2-fluoroacrylic acid]
0.0091 | 0.205 | 100 | – | CCC1(CC)CN(c2ccccc2)c2cc(SC)c(O/C=C(\F)C(=O)O)cc2S(=O)(=O)C1 [Example 44, (Z)-3-((3,3-diethyl-7-(methylthio)-1,1-dioxido-5-phenyl-2,3,4,5-tetrahydro-1,5-benzothiazepin-8-yl)oxy)-2-fluoroacrylic Acid]
